Test results reported in patent publication US12102634B2, “Use of berbamine or its analogue for preventing or treating RNA virus infection” (City University of Hong Kong, priority 2019, dated 2024).
Entries after “also recorded” stand apart in the source; their conditions may differ. Read-outs that look alike come from different tables or passages of the source.

Legend:
JEV [1] = experiment: High-content image assay (DsRNA immunostaining), JEV infection of A549 cells; details: for JEV infection in A549 host cells (relative infectivity, FIG. 8A): 13 compounds from virtual screening; for entry of JEV into the host cells (FIG. 8B): A549 cells; for entry of JEV into the host cells (FIG. 8B) / JEV infection of host cells: about 50 MOI JEV; for JEV infection of host cells: A549 cells pretreated 1 h
JEV [2] = experiment: High-content image assay, JEV infection of JEG-3 cells; details: JEG-3 cells pretreated 1 h, about 50 MOI, 18 h
ZIKV [3] = experiment: High-content image assay, ZIKV infection of JEG-3 cells; details: JEG-3 cells pretreated 1 h, about 50 MOI, 18 h
JEV [4] = experiment: Western blot of JEV-NS1 expression in JEV-infected A549 cells; details: A549 cells pretreated 1 h
ZIKV [5] = experiment: Western blot of ZIKV-E expression in ZIKV-infected A549 cells; details: A549 cells pretreated 1 h
JEV [6] = experiment: JEV lethal challenge in mice; assay type: in vivo, BALB/c mice; details: 15 days
Experimental: JEV-infected with berbamine-treated group. For infection, mice were injected intraperitoneally with approximately 10^6.5 TCID50 of JEV. For the berbamine treatment group, mice were injected intraperitoneally with a dose of 15 mg/kg berbamine or PBS daily. For the control-vehicle group, mice were injected intraperitoneally with a dose of 50 mg/kg PBS daily. Survival rate and change of body weight if the mice in each group were monitored for 15 days after JEV injection.

EV-A71 = experiment: High-content image assay, EV-A71 infection of RD cells; assay type: cell-based, enterovirus EV-A71 (EV-71); details: 10 MOI EV-71, read-out: EC50 against EV-A71 infection in RD cells
Text: After viral infection, the cells are fixed.

lentivirus = experiment: Lentivirus (histone B-RFP) infection of A549 cells; assay type: cell-based; details: pretreated A549 cells, lentivirus encoding histone B-RFP
[7] = tested on: MLV-SARS-CoV-2 S pseudotyped particles; assay type: cell-based
[8] = tested on: MERS-SARS-CoV S pseudotyped particles; assay type: cell-based
MERS-CoV = assay type: cell-based
SARS-CoV-2 [9] = experiment: SARS-CoV-2 infection of Vero-E6 cells, virus titration assay; assay type: cell-based; details: Severe acute respiratory syndrome coronavirus 2, Vero C1008, read-out: EC50, SARS-CoV-2 viral yield by virus titration assay
Experimental: FIG. 12F is a plot showing the inhibition rate determined by using virus titer measurement, in which Vero-E6 cells were treated with berbamine at the indicated concentrations for 3 h, followed by infection with SARS-CoV-2.

lysosomal Ca^2+ channels = experiment: GPN-induced Ca2+ release from lysosomes in Fura-2-loaded HeLa cells; assay type: cell-based; details: 10 μM, 200 μM GPN
Experimental: (§1) HeLa cells were grown in 24-well plates to ˜80% confluency. The cells were then loaded with HBSS (Gibco, 14025092) containing 4 μM Fura-2 AM (Invitrogen, F1221) and 0.4% Pluronic™ F-127 (Invitrogen, P3000MP) at room temperature for 30 min. The cells were then washed with Ca^2+-free HBSS containing 2 mM EGTA and incubated in Ca^2+-free HBSS in the presence or absence of berbamine (10 μM) at room temperature for another 30 min. Fluorescence images were acquired at 3 s intervals by alternate excitation at 340 nm and 380 nm with emission at 510 nm using a Nikon Eclipse Ti-S Calcium imaging system. Approximately 1 min after live cell imaging, 200 μM GPN (Abcam, ab145914) or 25 μM ML-SA1 (Tocris Bioscience, 4746) was added to the cells to trigger Ca2+ release from the lysosomes.

TRPMLs = experiment: ML-SA1-induced cytosolic Ca2+ increase in Fura-2-loaded HeLa cells; assay type: cell-based
Experimental: as §1

Huh7 cells = experiment: Secretion of extracellular vesicles by Huh7 cells, nanoparticle tracking analyzer; assay type: cell-based
Experimental: The EVs were collected from the culture medium of control or berbamine-treated Huh7 cells, and their concentration and distribution of sizes were determined with a nanoparticle tracking analyzer.
The inventors then examined whether these EVs contain elevated levels of ACE2 or DPP4 in the berbamine-treated group when compared with the control group. Thus, EVs in the culture medium from the control and berbamine-treated Huh7 cells were collected by ultracentrifugation, and the protein levels of ACE2 and DPP4 were analyzed by immunoblot analysis. […] The inventors also speculated that the increase in the secretion of ACE2 and DPP4-containing exosomes out of cells might lead to the reduced levels of these receptors in berbamine-treated cells. […] Similar results regarding the effects of berbamine on the expression of ACE2 in cells or EVs have also observed in A549 cells (FIGS. 15D and 15E). […] This leads to an increase in the level of secretion of ACE2 or DPP4 via EVs and a concomitant decrease in their levels at the plasma membrane.
Purification of extracellular vesicles from the culture medium-A549 cells or Huh7 cells were grown in 15-cm dishes to ˜80% confluency. The cells were then rinsed with PBS and incubated in EV-depleted complete medium containing DMSO or berbamine (25 μM) for 48 h. […]

ACE2 = assay type: cell-based
DPP4 = assay type: cell-based
SARS-CoV-2 [10] = experiment: in vitro; details: African green monkey
[11] = Cytotoxicity in Vero cells; details: African green monkey
[12] = Cytotoxicity in Hela cells; details: human
[13] = Cytotoxicity in A549 cells; details: human
[14] = Cytotoxicity in Huh7 cells; details: human
[15] = Cytotoxicity in BHK-21 cells; details: Syrian hamster
SARS-CoV-2 [16] = experiment: microbe, parasite or virus in culture; details: Severe acute respiratory syndrome coronavirus 2, Vero C1008, read-out: EC50, SARS-CoV-2 viral yield by qRT-PCR assay
JEV [17] = experiment: JEV-induced cell death in A549 or BHK-21 cells; details: pretreated A549 cells or BHK-21 cells
JEV [18] = experiment: Virus titration assay, JEV production in A549 cells; details: A549 cells pretreated
DENV-2 = experiment: DsRNA immunostaining, DENV-2 infection of A549 cells; details: pretreated 1 h, about 10 MOI DENV-2, dose dependent
ZIKV [19] = experiment: ZIKV entry, anti-ZIKV envelope protein immunostaining in A549 cells; details: ZIKV on ice 1 h, then 37° C. 40 min
ZIKV [20] = experiment: High-content image assay (DsRNA immunostaining), ZIKV infection of A549 cells; details: for ZIKV infection of host cells: A549 cells pretreated 1 h, about 50 MOI ZIKV
ZIKV [21] = experiment: Viral positive RNA strand hybridization in host cells treated with calcium chelator; assay type: cell-based, Zika virus
JEV [22] = experiment: Western blot of JEV envelope protein in A549 cells; details: dose dependent
[23] = 15 mg/kg intraperitoneally daily, vs control group
[24] = EVs from treated Huh7 cell culture medium
[25] = Vero-E6 cells, cycloheximide, 50 μM, 6 h

Q: With `COc1cc2c(cc1OC)C(c1cc(OC)c(OC)c(OC)c1)OCC2` (stereo not drawn) [Compound #9] as the compound, how does the “JEV infection in A549 host cells (relative infectivity, FIG. 8A)” value (JEV [1]) read?
A: highest potency

Q: And the “entry of JEV into the host cells (FIG. 8B)” value (“entry … (FIG. 8B)” below) (JEV [1])?
A: effectively block

Q: For `COc1cc2c(cc1OC)C(C)N(C(=O)c1ccc(Br)cc1)CC2` (stereo not drawn) [Compound #7], which “JEV infection in A549 host cells (relative infectivity, FIG. 8A)” value (JEV [1]) is on record?
A: highest potency

Q: And the “entry … (FIG. 8B)” value (JEV [1])?
A: effectively block

Q: For `COc1cc2c3cc1Oc1c(OC)c(OC)cc4c1[C@@H](Cc1ccc(OC(=O)c5ccc([N+](=O)[O-])cc5)c(c1)Oc1ccc(cc1)C[C@@H]3N(C)CC2)N(C)CC4` [E6 berbamine], which “JEV infection in JEG-3 cells” value (JEV [2]) is on record?
A: significantly inhibited

Q: What about the “ZIKV infection in JEG-3 cells” value (ZIKV [3]) of the same compound?
A: significantly inhibited

Q: And the “protein expression of JEV-NS1” value (JEV [4])?
A: strong inhibition

Q: What about the “protein expression of ZIKV-E” value (ZIKV [5]) of the same compound?
A: strong inhibition

Q: With `COc1cc2c3cc1Oc1c(OC)c(OC)cc4c1[C@@H](Cc1ccc(O)c(c1)Oc1ccc(cc1)C[C@@H]3N(C)CC2)N(C)CC4` [berbamine] as the compound, how does the “body weight change of mice after JEV challenge” value (JEV [6]; [23]) read?
A: less weight changes

Q: And the “survival rate of mice after JEV challenge” value (JEV [6]; [23])?
A: increases the survival rate

Q: What about the “survival rate of mock (uninfected) mice given compound vs mock group” value (JEV [6]; mock group with 15 mg/kg) of the same compound?
A: same survival rate

Q: And the EC50 (EV-A71)?
A: ~17.3 µM

Q: What about the EC50 (EV-A71; Enterovirus A, EV71 / EVA71, RD) of the same compound?
A: ~17 µM

Q: What about the “lentivirus infection of A549 cells” value (lentivirus) of the same compound?
A: abolished

Q: And the “entry of MLV-SARS-CoV-2 S pseudovirus particles” value [7]?
A: effectively inhibited; also recorded: inhibited the entry

Q: And the “entry of MERS-SARS-CoV S pseudovirus particles” value [8]?
A: effectively inhibited; also recorded: inhibited the entry

Q: And the “extracellular level of MERS-CoV RNA” value (MERS-CoV)?
A: significantly decreased

Q: What about the “intracellular level of MERS-CoV RNA” value (MERS-CoV) of the same compound?
A: significantly decreased

Q: And the EC50 (SARS-CoV-2 [9])?
A: ~4.7 µM

Q: What about the “GPN-induced cytosolic Ca2+ increase” value (lysosomal Ca^2+ channels) of the same compound?
A: significantly inhibited

Q: What about the “ML-SA1-induced cytosolic Ca2+ increase” value (TRPMLs; 10 μM, 25 μM ML-SA1) of the same compound?
A: significantly inhibited

Q: And the “secretion of EVs” value (Huh7 cells)?
A: significantly promoted

Q: And the “level of ACE2 in EVs” value (ACE2; [24])?
A: markedly increased

Q: What about the “level of ACE2 in cells” value (ACE2; [25]) of the same compound?
A: markedly decreased

Q: What about the “level of DPP4 in EVs” value (DPP4; [24]) of the same compound?
A: markedly increased

Q: What about the “level of DPP4 in cells” value (DPP4; [25]) of the same compound?
A: markedly decreased

Q: What about the selectivity ratio (SARS-CoV-2 [10]) of the same compound?
A: 48.9

Q: And the CC50 [11]?
A: 115 ± 5.3 µM

Q: And the CC50 [12]?
A: 115 ± 3.6 µM

Q: What about the CC50 [13] of the same compound?
A: 127 ± 3.9 µM

Q: What about the CC50 [14] of the same compound?
A: 90.4 ± 2.98 µM

Q: And the CC50 [15]?
A: 127 ± 2.43 µM

Q: And the EC50 (SARS-CoV-2 [16])?
A: ~2.3 µM

Q: What about the JEV-induced cell death (JEV [17]) of the same compound?
A: markedly reduced

Q: What about the “production of JEV (virus titer)” value (JEV [18]) of the same compound?
A: significantly inhibited; also recorded: markedly inhibited

Q: And the “DENV-2 infection in A549 cells” value (DENV-2)?
A: significantly inhibit

Q: What about the “JEV infection in JEG-3 cells” value (JEV [2]) of the same compound?
A: significantly inhibited

Q: And the “ZIKV infection in JEG-3 cells” value (ZIKV [3])?
A: significantly inhibited

Q: What about the “protein expression of JEV-NS1” value (JEV [4]) of the same compound?
A: markedly inhibited

Q: And the “protein expression of ZIKV-E” value (ZIKV [5])?
A: markedly inhibited

Q: What about the “entry of ZIKV into host cells” value (ZIKV [19]) of the same compound?
A: inhibitory effect

Q: What about the selectivity ratio (JEV [1]; human) of the same compound?
A: 78.2

Q: And the selectivity ratio (ZIKV [20]; human)?
A: 58.4

Q: What does the source list for `COc1ccc2cc1Oc1ccc(cc1)C[C@H]1c3cc(c(OC)cc3CCN1C)Oc1c(OC)c(OC)cc3c1[C@@H](C2)N(C)CC3` [isotetrandrine]?
A: DENV-2 infection in A549 cells (DENV-2): significantly inhibit; JEV infection in JEG-3 cells (JEV [2]): significantly inhibited; ZIKV infection in JEG-3 cells (ZIKV [3]): significantly inhibited; JEV infection of host cells (JEV [1]): significantly inhibited; ZIKV infection of host cells (ZIKV [20]): significantly inhibited

Q: For `CC(=O)OCOC(=O)CN(CC(=O)OCOC(C)=O)c1ccccc1OCCOc1ccccc1N(CC(=O)OCOC(C)=O)CC(=O)OCOC(C)=O` [BAPTA-AM], which “viral positive RNA strand inside host cells” value (ZIKV [21]) is on record?
A: no ZIKV positive RNA strand was spotted

Q: What about the “expression of JEV envelope protein” value (JEV [22]) of the same compound?
A: markedly inhibited

Q: Which “DENV-2 infection in A549 cells” value (DENV-2) does the source give for `COc1ccc2cc1Oc1ccc(cc1)C[C@H]1c3cc(c(OC)cc3CCN1C)Oc1c(O)c(OC)cc3c1[C@H](C2)N(C)CC3` [fangchinoline] here?
A: significantly inhibit

Q: What about the “JEV infection in JEG-3 cells” value (JEV [2]) of the same compound?
A: significantly inhibited

Q: What about the “ZIKV infection in JEG-3 cells” value (ZIKV [3]) of the same compound?
A: significantly inhibited

Q: And the “JEV infection of host cells” value (JEV [1])?
A: significantly inhibited

Q: What about the “ZIKV infection of host cells” value (ZIKV [20]) of the same compound?
A: significantly inhibited

Q: With `COc1cc(C(=O)N2c3ccccc3CCC2C)cc(OC)c1OC` (stereo not drawn) [Compound #1] as the compound, how does the “JEV infection in A549 host cells (relative infectivity, FIG. 8A)” value (JEV [1]) read?
A: highest potency

Q: What about the “entry … (FIG. 8B)” value (JEV [1]) of the same compound?
A: effectively block

Q: Which results are given for `COc1cccc(C(=O)CC2c3c(cc4c(c3OC)OCO4)CCN2C)c1` (stereo not drawn) [Compound #11]?
A: JEV infection in A549 host cells (relative infectivity, FIG. 8A) (JEV [1]): highest potency; entry of JEV into the host cells (FIG. 8B) (JEV [1]): effectively block

Q: Which “cytosolic Ca2+ levels (agonist effect)” value (TRPMLs; 25 μM) does the source give for `CC1CC(C)(C)N(C(=O)CN2C(=O)c3ccccc3C2=O)c2ccccc21` (stereo not drawn) [ML-SA1, reference compound] here?
A: markedly increased
